# Literature values, collected in US20040047892A1, “Filler composition for soft tissue augmentation and reconstructive surgery” (priority 2003, published 2004).
substance,measurement,setting,value
collagen,time until the filler disappears,depending on the patient and site of injection,within a few months
same,share of the population allergic,in vivo,about 3%
